Assay results reported in the supplement of paper PMC10307832.

What was measured:
Experiment in all cases: relative viability (nuclei count vs DMSO), 5 days (fraction); higher = more cells survive
[1] = compound: N#CC[C@H](C1CCCC1)n1cc(-c2ncnc3[nH]ccc23)cn1 [Ruxolitinib] + Cc1nc(Nc2ncc(C(=O)Nc3c(C)cccc3Cl)s2)cc(N2CCN(CCO)CC2)n1 [Dasatinib] (partner 0.075 µM)
Method in brief: (§1)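 Lung cancer cell lines were seeded in 1536-well plates and dosed by pin tool the next day, with either a single drug or a fixed anchor-drug dose combined with five library-drug doses (not always all listed) spaced in √10 steps. Five days later, one step fixed the cells and stained their nuclei (final 0.05% Triton X-100, 1% formaldehyde, 1 ug/ml Hoechst), and nuclei were counted on 4× images. Relative viability is the nuclei count in treated wells divided by the count in vehicle wells, and each value is the median of duplicate plates.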

[2] = compound: CS(=O)(=O)c1ccc(C(=O)Nc2ccc(Cl)c(-c3ccccn3)c2)c(Cl)c1 [Vismodegib] + CS(=O)(=O)CCNCc1ccc(-c2ccc3ncnc(Nc4ccc(OCc5cccc(F)c5)c(Cl)c4)c3c2)o1 [Lapatinib] (partner 2 µM)
Method in brief: as §1

[3] = compound: CS(=O)(=O)c1ccc(C(=O)Nc2ccc(Cl)c(-c3ccccn3)c2)c(Cl)c1 [Vismodegib] + C[C@@H](Oc1cc(-c2cnn(C3CCNCC3)c2)cnc1N)c1c(Cl)ccc(F)c1Cl [Crizotinib] (partner 1 µM)
Method in brief: as §1

Row | Cell Line | relative viability ([1]; first compound 0.08 µM) | relative viability ([1]; first compound 0.253 µM) | relative viability ([1]; first compound 0.8 µM) | relative viability ([1]; first compound 2.53 µM) | relative viability ([1]; first compound 8 µM) | relative viability ([2]; first compound 0.08 µM) | relative viability ([2]; first compound 0.253 µM) | relative viability ([2]; first compound 0.8 µM) | relative viability ([2]; first compound 2.53 µM) | relative viability ([2]; first compound 8 µM) | relative viability ([3]; first compound 0.08 µM) | relative viability ([3]; first compound 0.253 µM) | relative viability ([3]; first compound 0.8 µM) | relative viability ([3]; first compound 2.53 µM) | relative viability ([3]; first compound 8 µM)
1 | H3255 | 0.301 | 0.402 | 0.421 | 0.282 | 0.31 | 0.244 | 0.24 | 0.239 | 0.268 | 0.239 | 0.812 | 0.737 | 0.965 | 0.913 | 0.597
2 | NCI-H1651 | 0.323 | 0.37 | 0.389 | 0.337 | 0.29 | 0.869 | 0.867 | 0.852 | 0.83 | 0.89 | 0.776 | 0.851 | 0.871 | 0.825 | 0.829
3 | NCI-H1734 | 0.522 | 0.433 | 0.503 | 0.38 | 0.341 | 1.04 | 1.02 | 0.96 | 0.957 | 1 | 0.687 | 0.654 | 0.762 | 0.62 | 0.756
4 | CAL-12T | 0.497 | 0.546 | 0.561 | 0.25 | 0.163 | – | 0.723 | 0.578 | 0.562 | 0.75 | 0.693 | 0.761 | 0.685 | 0.773 | 0.807
5 | NCI-H1993 | 0.532 | 0.523 | 0.579 | 0.488 | 0.583 | 0.745 | 1.02 | 0.806 | 0.788 | 0.777 | 0.995 | 0.958 | 0.768 | 0.851 | 0.906
6 | NCI-H1755 | 0.473 | 0.394 | 0.472 | 0.341 | 0.213 | 1 | 1 | 1.06 | 1.02 | 1.04 | 0.817 | 0.842 | 0.964 | 0.839 | 0.859
7 | SK-LU-1 | 0.206 | 0.166 | 0.166 | 0.135 | 0.164 | 0.769 | 0.887 | 0.991 | 0.776 | 0.884 | 1.02 | 0.817 | 0.874 | 0.881 | 0.997
8 | NCI-H358 | 0.189 | 0.131 | 0.175 | 0.135 | 0.164 | 0.471 | 0.505 | 0.422 | 0.518 | 0.461 | 0.596 | 0.479 | 0.546 | 0.551 | 0.579
9 | HCC-78 | 0.39 | 0.319 | 0.387 | 0.354 | 0.323 | 0.278 | 0.646 | 0.667 | 0.701 | 0.746 | 0.307 | 0.351 | 0.286 | 0.351 | 0.347
10 | LCLC-97TM1 | 0.912 | 0.731 | 0.712 | 0.62 | 0.623 | – | – | 0.663 | – | 1.03 | – | – | 0.418 | – | 0.355
